Measurements reported in ChEMBL document CHEMBL1156743, “Design, synthesis, and biological evaluations of 2,5-diaryl-2,3-dihydro-1,3,4-oxadiazoline analogs of combretastatin-A4” (J Med Chem, 2010).
In brackets after ≈: the same amount, converted by molar mass. Activity calls are given as the source filed them. No cut-off for these calls is given here.

Columns and labels:
L1210 = experiment: Antiproliferative activity against mouse L1210 cells after 72 hrs by MTT assay; assay type: functional, cell-based; conditions: L1210, 72 h
MDA-MB-435 [1] = experiment: Antiproliferative activity against human MDA-MB-435 cells after 48 hrs by SRB assay; assay type: functional, cell-based; conditions: MDA-MB-435, 48 h
A10 [2] = experiment: Antiproliferative activity against rat A10 cells assessed as microtubule depolymerization after 18 to 24 hrs by indirect immunofluorescence technique; assay type: functional, cell-based
A10 [3] = experiment: Antiproliferative activity against rat A10 cells assessed as microtubule depolymerization at 1 uM after 18 hrs by indirect immunofluorescence technique; assay type: functional, cell-based
MDA-MB-435 [4] = experiment: Ratio of EC50 for rat A10 cells to IC50 for human MDA-MB-435 cells; assay type: functional
[5] = Relative aqueous solubility at pH 7.4 by filter plate assay; assay type: physicochemical; conditions: buffer
HeLa [6] = experiment: Antiproliferative activity against human HeLa cells expressing wild type beta3 tubulin after 48 hrs by SRB assay; assay type: functional, cell-based
SK-OV-3 [7] = experiment: Antiproliferative activity against human SKOV3 cells expressing adenoviral MDR1 after 48 hrs by SRB assay; assay type: functional, cell-based; conditions: SK-OV-3, 48 h
SK-OV-3 [8] = experiment: Antiproliferative activity against human SKOV3 cells after 48 hrs by SRB assay; assay type: functional, cell-based; conditions: SK-OV-3, 48 h
MDA-MB-435 [9] = experiment: Cell cycle arrest in human MDA-MB-435 cells assessed as accumulation at G2/M phase at 0.5 uM after 18 hrs by flow cytometry; assay type: functional, cell-based
HeLa [10] = experiment: Antimitotic activity in human HeLa cells assessed as effect on DNA at 0.5 uM after 18 hrs by indirect immunofluorescence technique; assay type: functional, cell-based
HeLa [11] = experiment: Antimitotic activity in human HeLa cells assessed as multipolar mitotic spindles at 0.5 uM after 18 hrs by indirect immunofluorescence technique; assay type: functional, cell-based
HeLa [12] = experiment: Antimitotic activity in human HeLa cells assessed as gamma-tubulin containing centrosomes at 0.5 uM after 18 hrs by indirect immunofluorescence technique; assay type: functional, cell-based
HeLa [13] = experiment: cells; conditions: Homo sapiens, 48 h
Description: Antiproliferative activity against human HeLa cells after 48 hrs by SRB assay

[14] = Antiproliferative activity against mouse B16F0 cells after 72 hrs by MTT assay; assay type: functional

With COc1cc(OC)cc(C2OC(c3cc(OC)c(OC)c(OC)c3)=NN2C(C)=O)c1 (stereo unspecified) the IC50 (L1210) was 5.9 µM.
With COc1cc(C2=NN(C(C)=O)C(c3ccccc3)O2)cc(OC)c1OC (stereo unspecified) the IC50 (L1210) was 6.4 µM.
In the case of COc1cccc(C2OC(c3cc(OC)c(OC)c(OC)c3)=NN2C(C)=O)c1 (stereo unspecified), the IC50 (L1210) is reported as 45 µM.
COc1ccc(C2=NN(C(C)=O)C(c3cc(OC)c(OC)c(OC)c3)O2)cc1 (stereo unspecified) gave an IC50 (L1210) of 0.5 µM, an IC50 (MDA-MB-435 [1]) of 0.14 µM and an EC50 (A10 [2]) of 0.5 µM. The Activity (A10 [3]) was “Active”, the Ratio (MDA-MB-435 [4]) was 3.6 and the solubility [5] was 257 µM (≈ 99.3 µg/mL). It also gave an IC50 (HeLa [6]) of 0.27 µM, an IC50 (SK-OV-3 [7]) of 0.45 µM and an IC50 (SK-OV-3 [8]) of 0.34 µM. The Activity (MDA-MB-435 [9]) was “Active”, the Activity (HeLa [10]) was “Active” and the Activity (HeLa [11]) was “Active”. The Activity (HeLa [12]) was “Active” and the IC50 (HeLa [13]) was 0.23 µM.
Work on COc1ccc(C2=NN(C(C)=O)C(c3ccc([N+](=O)[O-])cc3)O2)cc1 (stereo unspecified) yielded an IC50 (L1210) of 68 µM.
For COc1cc(C2=NN(C(C)=O)C(c3ccc([N+](=O)[O-])cc3)O2)cc(OC)c1OC (stereo unspecified), the IC50 (L1210) was 4.2 µM.
Work on COc1ccc(OC)c(C2OC(c3cc(OC)c(OC)c(OC)c3)=NN2C(C)=O)c1 (stereo unspecified) yielded an IC50 (L1210) of 55 µM.
Molecule COc1ccc(C2=NN(C(C)=O)C(c3ccc(OC)c(OC(C)=O)c3)O2)cc1 (stereo unspecified) has an IC50 (L1210) of over 100 µM.
Molecule COc1ccc(C2=NN(C(C)=O)C(c3ccccc3OC)O2)cc1 (stereo unspecified) has an IC50 (L1210) of 5.8 µM.
Molecule COc1ccc(C2=NN(C(C)=O)C(c3cccc(Br)c3)O2)cc1 (stereo unspecified) has an IC50 (L1210) of 37 µM.
Work on COc1ccc(C2OC(c3cc(OC)c(OC)c(OC)c3)=NN2C(C)=O)cc1OC(C)=O (stereo unspecified) yielded an IC50 (L1210) of 3.9 µM, an IC50 (MDA-MB-435 [1]) of 3.3 µM and an EC50 (A10 [2]) of 10.2 µM. It also gave a Ratio (MDA-MB-435 [4]) of 3.1 and a solubility [5] of 112 µM (≈ 49.8 µg/mL).
With COc1cc(C2=NN(C(C)=O)C(c3cccc(Br)c3)O2)cc(OC)c1OC (stereo unspecified) the IC50 (L1210) was 0.6 µM, the IC50 (MDA-MB-435 [1]) was 0.15 µM and the EC50 (A10 [2]) was 1.5 µM. The Ratio (MDA-MB-435 [4]) was 10 and the solubility [5] was 66 µM (≈ 28.7 µg/mL).
In the case of COc1ccc(C2OC(c3cc(OC)c(OC)c(OC)c3)=NN2C(C)=O)cc1 (stereo unspecified), the IC50 (L1210) is reported as 57 µM.
In the case of COc1ccc(C2=NN(C(C)=O)C(c3cccc([N+](=O)[O-])c3)O2)cc1 (stereo unspecified), the IC50 (L1210) is reported as 47 µM.
COc1ccc(C2=NN(C(C)=O)C(c3cc(OC)ccc3OC)O2)cc1 (stereo unspecified) showed an IC50 (L1210) of 0.5 µM, an IC50 (MDA-MB-435 [1]) of 0.2 µM and an EC50 (A10 [2]) of 1.3 µM. For the same molecule, the Ratio (MDA-MB-435 [4]) was 6.5 and the solubility [5] was 259 µM (≈ 92.3 µg/mL).
For COc1ccccc1C1OC(c2cc(OC)c(OC)c(OC)c2)=NN1C(C)=O (stereo unspecified), the IC50 (L1210) was 48 µM.
For COc1ccc(C2=NN(C(C)=O)C(c3cc(OC)cc(OC)c3)O2)cc1 (stereo unspecified), the IC50 (L1210) was 0.5 µM, the IC50 (MDA-MB-435 [1]) was 0.11 µM and the EC50 (A10 [2]) was 1 µM. It also gave a Ratio (MDA-MB-435 [4]) of 9.1 and a solubility [5] of 94 µM (≈ 33.5 µg/mL).
For COc1ccc(C2=NN(C(C)=O)C(c3ccccc3)O2)cc1 (stereo unspecified), the IC50 (L1210) was over 100 µM.
For COc1ccc(C2=NN(C(C)=O)C(c3ccc(OC)c([N+](=O)[O-])c3)O2)cc1 (stereo unspecified), the IC50 (L1210) was over 100 µM.
Work on COc1ccc(/C=C\c2cc(OC)c(OC)c(OC)c2)cc1O [COMBRETASTATIN A4] yielded an Activity [14] of 0.003 µM, an EC50 (A10 [2]) of 0.007 µM and a solubility [5] of 350 µM (≈ 111 µg/mL).
Molecule COc1cc(C2=NN(C(C)=O)C(c3cc(OC)c(OC)c(OC)c3)O2)cc(OC)c1OC (stereo unspecified) has an IC50 (L1210) of over 100 µM.
Work on COc1ccc(C2OC(c3cc(OC)c(OC)c(OC)c3)=NN2C(C)=O)cc1[N+](=O)[O-] (stereo unspecified) yielded an IC50 (L1210) of 58 µM.
Molecule COc1cc(C2=NN(C(C)=O)C(c3cccc([N+](=O)[O-])c3)O2)cc(OC)c1OC (stereo unspecified) has an IC50 (L1210) of 39 µM.
COc1ccc(C2=NN(C(C)=O)C(c3ccc(OC)cc3)O2)cc1 (stereo unspecified) gave an IC50 (L1210) of over 100 µM.
With COc1ccc(C2=NN(C(C)=O)C(c3cccc(OC)c3)O2)cc1 (stereo unspecified) the IC50 (L1210) was 41 µM.
